In publication PMC4319572 (Structure (London, England : 1993), 2015):
Where a chain is given by its changes, count along the chain named. One block for each molecule: values may come before it.

Tests used:
[1] = molecular target: T1, Rgd1p F-BAR domain (residues 1-324) (Saccharomyces cerevisiae, UniProt P38339, R141D); assay: surface plasmon resonance; assay type: binding; settings: 30 μM protein over 10% (mole/mole) PtdIns(4,5)P2 in DOPC
T1 sequence (P38339 1-324 R141D): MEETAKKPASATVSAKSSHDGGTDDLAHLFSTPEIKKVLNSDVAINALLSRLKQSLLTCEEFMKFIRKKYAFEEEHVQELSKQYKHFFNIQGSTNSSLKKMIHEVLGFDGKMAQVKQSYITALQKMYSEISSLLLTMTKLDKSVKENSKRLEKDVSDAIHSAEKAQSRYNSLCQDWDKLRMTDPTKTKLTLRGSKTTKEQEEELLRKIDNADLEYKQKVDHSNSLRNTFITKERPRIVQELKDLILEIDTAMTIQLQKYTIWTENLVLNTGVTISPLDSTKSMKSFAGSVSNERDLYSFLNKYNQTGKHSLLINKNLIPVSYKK

[2] = molecular target: T2, Rgd1p F-BAR domain (residues 1-324) (Saccharomyces cerevisiae, UniProt P38339, R141D/K142E); assay: surface plasmon resonance; assay type: binding; settings: 30 μM protein over 10% (mole/mole) PtdIns(4,5)P2 in DOPC
T2 sequence (P38339 1-324 R141D/K142E): T1 sequence (P38339 1-324 R141D) with K142E

[3] = molecular target: T3, Rgd1p F-BAR domain (residues 1-324) (Saccharomyces cerevisiae, UniProt P38339, K149E/K153E); assay: surface plasmon resonance; assay type: binding; settings: 30 μM protein over 10% (mole/mole) PtdIns(4,5)P2 in DOPC
T3 sequence (P38339 1-324 K149E/K153E): T1 sequence (P38339 1-324 R141D) with D141R, K149E, K153E

[4] = molecular target: T4, Rgd1p F-BAR domain (residues 1-324) (Saccharomyces cerevisiae, UniProt P38339, R141D/K145E); assay: surface plasmon resonance; assay type: binding; settings: 30 μM protein over 10% (mole/mole) PtdIns(4,5)P2 in DOPC
T4 sequence (P38339 1-324 R141D/K145E): T1 sequence (P38339 1-324 R141D) with K145E

[5] = molecular target: T5, Rgd1p F-BAR domain (residues 1-324) (Saccharomyces cerevisiae, UniProt P38339); assay: competition off PtdIns; assay type: binding; settings: membranes with 10% (mole/mole) PtdIns(4,5)P2; competitive
T5 sequence (P38339 1-324): T1 sequence (P38339 1-324 R141D) with D141R

[6] = molecular target: the molecule itself; assay: crystal structure
[7] = molecular target: the molecule itself; assay: AUC

% reduction of binding vs wild type at 30 μM protein [1]: > 75% | binding relative to wild type [3]: Glutamate substitutions at K149 and K153
Molecule: CCCCCCCC/C=C\CCCCCCCC(=O)OC[C@H](COP(=O)(O)O[C@@H]1[C@H](O)[C@H](O)[C@@H](OP(=O)(O)O)[C@H](OP(=O)(O)O)[C@H]1O)OC(=O)CCCCCCC/C=C\CCCCCCCC [dioleoyl-PtdIns(4,5)P2]
binding relative to wild type [2]: as seen for R141D/K142E and R141D/K145E doubly-mutated variants | binding relative to wild type [4]: as seen for R141D/K142E and R141D/K145E doubly-mutated variants

Molecule: O=P(O)(O)O[C@H]1[C@H](O)[C@@H](O)[C@H](OP(=O)(O)O)[C@@H](OP(=O)(O)O)[C@H]1O [isolated headgroup of PtdIns(3,4)P2]
competition [5]: isolated headgroups of these three phosphoinositides were equally potent in their ability to compete

Molecule: O=P(O)(O)O[C@H]1[C@H](O)[C@@H](OP(=O)(O)O)[C@H](O)[C@@H](OP(=O)(O)O)[C@H]1O [isolated headgroup of PtdIns(3,5)P2]
competition [5]: isolated headgroups of these three phosphoinositides were equally potent in their ability to compete

Molecule: O=P(O)(O)O[C@@H]1[C@H](O)[C@H](O)[C@@H](OP(=O)(O)O)[C@H](OP(=O)(O)O)[C@H]1O [isolated headgroup of PtdIns(4,5)P2]
competition [5]: isolated headgroups of these three phosphoinositides were equally potent in their ability to compete

B1: Rgd1p F-BAR domain (residues 24-333) (domain or fragment, S. cerevisiae, UniProt P38339 24-333, looked up)
chain: DDLAHLFSTPEIKKVLNSDVAINALLSRLKQSLLTCEEFMKFIRKKYAFEEEHVQELSKQYKHFFNIQGSTNSSLKKMIHEVLGFDGKMAQVKQSYITALQKMYSEISSLLLTMTKLRKSVKENSKRLEKDVSDAIHSAEKAQSRYNSLCQDWDKLRMTDPTKTKLTLRGSKTTKEQEEELLRKIDNADLEYKQKVDHSNSLRNTFITKERPRIVQELKDLILEIDTAMTIQLQKYTIWTENLVLNTGVTISPLDSTKSMKSFAGSVSNERDLYSFLNKYNQTGKHSLLINKNLIPVSYKKHPSMNHGQK
stoichiometry N [6]: 2

B2: Hof1p F-BAR domain (residues 1-300) (domain or fragment, S. cerevisiae, UniProt Q05080 1-300, looked up)
chain: MSYSYEACFWDPNDNGVNILLGHISQGIRSCDSMILFFKQRSELEKDYARRLGAITGKLDKDIGTNMDYGKLNETFNVVLSVEKARAQSHSKQSEILFRQIYTDTKAFAANLQARYTTLSGKIERLRMDKFNKKKGCEVLQKKLQDAQIRFRDLQLNENNMIGAKRVEHNKRELLKWESNSQEYKVQLDVLKQEYKASQKFWIHEWAQLSCELQEMENARISFLQSKLQQFATSSMETYILEQTKMDMLTNHLNSFTAADEISTFSKENGTGRLKHKTSKGDMNSSANWAQMSSISTTSK
modifications: selenomethionine (SeMet) in the protein used for the crystals
Kd [7]: ~3000 nM | stoichiometry N [6]: 2
